Here are results for 8 compounds from US7247643B2, “8-aza-bicyclo (3.2.1) octane derivatives and their use as monoamine neurotransmitter re-uptake inhibitors” (NeuroSearch A/S, priority 2003, dated 2007).

Counter-ions that a name gives are not always drawn.

Data set [1] addresses T1, NA-uptake (reuptake of noradrenaline in synaptosomes) (Rattus norvegicus, UniProt Q9WTR4).
T1 construct: In synaptosomes as described in WO 97/16451; from tissue
Description: Inhibition of noradrenaline (NA) reuptake in synaptosomes. The format is biochemical. The protocol:
(§1) A number of compounds were tested for their ability to inhibit the reuptake of the monoamine neurotransmitters dopamine (DA) noradrenaline(NA) and serotonin (5-HT) In synaptosomes as described in WO 97/16451.
(§2) The test values are given as IC50 (the concentration (μM) of the test substance which inhibits the specific binding of ^3H-DA, ^3H-NA, or ^3H-5-HT by 50%).

Data set [2] concerns the target T2, 5-HT-uptake (reuptake of serotonin in synaptosomes) (Rattus norvegicus, UniProt P31652).
T2 construct: In synaptosomes as described in WO 97/16451; from tissue
In words: Inhibition of serotonin (5-HT) reuptake in synaptosomes. It is filed as biochemical. The protocol:
as §1, §2

In data set [3] the target is T3, DA-uptake (reuptake of dopamine in synaptosomes) (Rattus norvegicus, UniProt P23977).
T3 construct: In synaptosomes as described in WO 97/16451; from tissue
T3 sequence (P23977 whole entry): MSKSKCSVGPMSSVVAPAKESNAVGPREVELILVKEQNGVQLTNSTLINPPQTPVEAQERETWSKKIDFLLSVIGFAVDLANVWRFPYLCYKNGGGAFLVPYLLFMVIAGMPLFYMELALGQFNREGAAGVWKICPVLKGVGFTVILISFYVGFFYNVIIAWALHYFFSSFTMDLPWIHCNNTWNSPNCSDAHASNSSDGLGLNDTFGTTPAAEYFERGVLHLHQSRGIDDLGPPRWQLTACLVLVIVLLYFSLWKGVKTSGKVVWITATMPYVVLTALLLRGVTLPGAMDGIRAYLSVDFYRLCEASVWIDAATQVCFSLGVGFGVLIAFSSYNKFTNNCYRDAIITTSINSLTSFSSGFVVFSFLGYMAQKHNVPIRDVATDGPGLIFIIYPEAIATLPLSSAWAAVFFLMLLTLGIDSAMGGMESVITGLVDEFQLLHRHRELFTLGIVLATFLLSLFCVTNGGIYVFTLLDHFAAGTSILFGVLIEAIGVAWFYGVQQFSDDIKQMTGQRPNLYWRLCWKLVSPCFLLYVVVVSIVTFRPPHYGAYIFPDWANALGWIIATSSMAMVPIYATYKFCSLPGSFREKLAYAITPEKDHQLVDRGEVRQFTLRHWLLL
In words: Inhibition of dopamine (DA) reuptake in synaptosomes. The format is biochemical. On the procedure:
as §1, §2

T1 sequence (Q9WTR4 1-597): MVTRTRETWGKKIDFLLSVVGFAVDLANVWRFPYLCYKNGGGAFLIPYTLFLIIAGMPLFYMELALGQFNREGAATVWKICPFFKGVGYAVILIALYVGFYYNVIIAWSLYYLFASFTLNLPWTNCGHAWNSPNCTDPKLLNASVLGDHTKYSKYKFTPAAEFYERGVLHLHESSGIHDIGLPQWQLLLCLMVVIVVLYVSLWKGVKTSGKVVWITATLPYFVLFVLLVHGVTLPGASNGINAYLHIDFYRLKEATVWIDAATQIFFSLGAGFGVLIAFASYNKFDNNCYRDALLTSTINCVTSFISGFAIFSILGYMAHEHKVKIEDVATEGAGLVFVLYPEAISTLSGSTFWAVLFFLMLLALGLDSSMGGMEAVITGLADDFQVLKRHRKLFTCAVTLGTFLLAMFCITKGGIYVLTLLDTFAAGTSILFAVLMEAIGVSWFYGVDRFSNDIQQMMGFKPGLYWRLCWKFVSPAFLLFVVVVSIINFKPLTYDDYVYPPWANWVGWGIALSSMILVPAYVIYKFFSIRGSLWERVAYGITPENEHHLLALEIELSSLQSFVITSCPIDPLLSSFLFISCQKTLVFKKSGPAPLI
T2 sequence (P31652 whole entry): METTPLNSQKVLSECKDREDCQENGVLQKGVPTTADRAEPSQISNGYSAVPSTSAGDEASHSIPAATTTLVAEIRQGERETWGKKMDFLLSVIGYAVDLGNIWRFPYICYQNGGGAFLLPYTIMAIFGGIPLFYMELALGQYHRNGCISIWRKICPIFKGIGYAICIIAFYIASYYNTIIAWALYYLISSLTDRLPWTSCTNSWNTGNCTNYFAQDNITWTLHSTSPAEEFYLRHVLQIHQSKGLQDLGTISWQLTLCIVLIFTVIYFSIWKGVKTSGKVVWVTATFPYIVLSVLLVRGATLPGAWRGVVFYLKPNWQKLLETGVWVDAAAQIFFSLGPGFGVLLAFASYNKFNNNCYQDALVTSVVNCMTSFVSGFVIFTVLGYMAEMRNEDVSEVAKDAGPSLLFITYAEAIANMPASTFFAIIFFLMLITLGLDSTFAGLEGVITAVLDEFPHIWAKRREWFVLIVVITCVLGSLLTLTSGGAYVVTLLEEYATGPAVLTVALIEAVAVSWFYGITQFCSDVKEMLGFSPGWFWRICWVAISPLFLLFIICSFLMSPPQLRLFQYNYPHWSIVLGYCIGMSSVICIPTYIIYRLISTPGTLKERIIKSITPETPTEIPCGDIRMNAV

The IC50 is the concentration that inhibits the measured activity by half. The low end stands for greater potency, the high end for weaker potency. As usually defined, the melting point is the temperature of the solid-liquid transition. As to `CN1C2CCC1[C@H](COc1cccc(Cl)c1Cl)[C@@H](c1ccco1)C2.O=C(O)/C=C/C(=O)O` (stereo partly drawn) [5th compound of method D, (2R,3S)-2-(2,3-Dichlorophenoxymethyl)-8-methyl-3-(2-furanyl)-8-aza-bicyclo[3.2.1]octane fumaric acid salt], the melting point lay in the range of 156.4 to 205.9 °C. The same compound came in with a half-inhibitory concentration (IC50) in data set [1] of 0.9 nM. In data set [2], this compound had a concentration for half-maximal inhibition (IC50) of 0.36 nM. For the same compound, in data set [3], the 50% inhibitory concentration (IC50) was found to be 310 nM.
`CN1C2CCC1[C@H](COc1cccc3ccccc13)[C@@H](c1ccco1)C2` (stereo partly drawn) [6th compound of method D, (2R,3S)-2-(1-Naphthyloxymethyl)-8-methyl-3-(2-furanyl)-8-aza-bicyclo[3.2.1]octane fumaric acid salt]: the IC50 in data set [1] worked out at 3 nM; in data set [2], 0.53 nM; in data set [3] it was 920 nM.
For `CN1C2CCC1[C@H](COc1cccc(Cl)c1Cl)[C@@H](c1cccs1)C2` (stereo partly drawn) [1st compound of method D, (2R,3S)-2-(2,3-Dichlorophenoxymethyl)-8-methyl-3-(2-thienyl)-8-aza-bicyclo[3.2.1]octane fumaric acid salt], the half-inhibitory concentration (IC50) stood at 1.9 nM in data set [1], 0.52 nM in data set [2] and 300 nM in data set [3].
`c1csc(C2CC3CCC(N3)C2COc2cccc3ccccc23)c1` (as salt: fumaric acid salt) [2nd compound of method E, (2R,3S)-2-(1-Naphthyloxymethyl)-8-H-3-(2-thienyl)-8-aza-bicyclo[3.2.1]octane fumaric acid salt] had a melting point of 199.1 °C.
In the case of `CN1C2CCC1[C@H](COc1cccc3ccccc13)[C@@H](c1cccs1)C2.O=C(O)/C=C/C(=O)O` (stereo partly drawn) [2nd compound of method D, (2R,3S)-2-(1-Naphthyloxymethyl)-8-methyl-3-(2-thienyl)-8-aza-bicyclo[3.2.1]octane fumaric acid salt], the melting point was 203.1 °C. In data set [1], the midpoint of inhibition, the IC50, lay at 3.6 nM. This compound also registered a half-inhibitory concentration (IC50) in data set [2] of 0.42 nM. The compound also displayed an IC50 in data set [3] of 360 nM.
On to `c1csc(C2CC3CCC(N3)C2COc2cccc3ccccc23)c1` [2nd compound of method E, (2R,3S)-2-(1-Naphthyloxymethyl)-8-H-3-(2-thienyl)-8-aza-bicyclo[3.2.1]octane fumaric acid salt], for which the half-inhibitory concentration (IC50) in data set [1] was 1.6 nM; in data set [2], 0.54 nM; in data set [3], 190 nM.
Consider `Clc1cccc(OCC2C3CCC(CC2c2cccs2)N3)c1Cl` (as salt: fumaric acid salt) [1st compound of method E, (2R,3S)-2-(2,3-Dichlorophenoxymethyl)-8-H-3-(2-thienyl)-8-aza-bicyclo[3.2.1]octane fumaric acid salt], for which the melting point is 201.2 °C.
`Clc1cccc(OCC2C3CCC(CC2c2cccs2)N3)c1Cl` [1st compound of method E, (2R,3S)-2-(2,3-Dichlorophenoxymethyl)-8-H-3-(2-thienyl)-8-aza-bicyclo[3.2.1]octane fumaric acid salt]: the IC50 stood at 1.8 nM in data set [1], 0.74 nM in data set [2] and 74 nM in data set [3].
